How the values were obtained:
[1] = test system: inducible nitric oxide synthase (iNOS); assay: Inducible nitric oxide synthase (iNOS), cGMP accumulation in rat aorta smooth muscle cells; type: cell-based; conditions: RASMC induced with LPS, IL-1β or TNF-α; 0.1 or 1 μM EX-2
Description: Rat aorta smooth muscle cells (RASMC) were isolated from male rats (325-350 g) using the previously published procedures of Gelsterfer et al., Circ. Res. 62:749-756 (1988), which is incorporated herein by reference. Cells were positively identified as smooth muscle cells by indirect immunofluorescent staining for anti-α-actin, using a mouse anti-α-actin antibody and anti-mouse IgG FITC conjugate. Cells were grown in T-75 tissue culture flasks (Corning Delbelco's Glass, Inc.; Corning, NY) in 50% F12 and 50% Delbelco's Modified Eagle Medium (DMEM) supplemented with 10% bovine serum, 0.2 g/1 L-glutamine, penicillin (100 U/ml) and streptomycin (0.1 mg/ml).
Cells between passages 1-5 were pretreated with one of the following: vehicle, LPS (1 μg/ml), IL-1β (10 U/ml), or TNF-α (100 U/ml) for 6 hr. […] Accumulation of cGMP was determined following exposure to 0.3 mM 3-isobutyl-1-methyl xanthine (IBMX in the presence or absence of 1 mM L-arginine. Medium was then rapidly aspirated and 500 μl of 0.1N HCl was added to each well to stop the reactions and extract cGMP. Thirty min later, the HC1 extract was collected and cell remnants removed from the wells by adding hot 1.0N NaOH and scraping the well with a rubber policeman. The HCl extract was analyzed for cGMP by RIA and the NaOH-solubilized cell remnants were used for protein determination. […]

IL-10 = assay: Increasing levels of IL-10 in human plasma; type: in vivo; conditions: for increase of plasma IL-10: healthy male volunteers
Description: EX-2 was administered by intravenous infusion to eight healthy male volunteers in doses of either 200 or 500 ug/kg. Plasma IL-10 levels increased in two of four volunteers after administration at 200 ug/kg EX-2 (FIG. 3a) and in four of four volunteers after administration of 500 ug/kg EX-2 (FIG. 3b).

Zucker NIDDM diabetes = assay: Heritable diabetes, Zucker NIDDM rats; type: in vivo; conditions: 25 μg/kg every 8 hr for approximately three months
Description: Male Zucker rats are a well established rat model for heritable non-insulin dependent diabetes mellitus (NIDDM), as described, for example, by Ward et al., Ann. Clin. Lab. Sci., 24:266-277, (1994), which is incorporated herein by reference. Eighteen male Zucker rats were used to study the effects of EX-2 on NIDDM, a chronic disease. The rats were placed into two groups and received either saline or 25 μg/kg EX-2 every 8 hr for approximately three months. Blood samples were collected by tail clip and urine samples were collected by placing animals in metabolic cages fro 24 hr. Plasma insulin was assayed using an RIA kit (Amersham Life Sciences, Arlington Heights, Ill.). Urine protein was assayed for using a commercial protein assay kit (Coomassie Plus, Pierce, Rockford, Ill.). Body weighed measurements were made with a Mettler Toledo top loader balance.

[2] = test system: IL-1β-induced hyperalgesia; assay: IL-1β-induced hyperalgesia, paw pressure test; type: in vivo, rats; set-up: dose or concentration left out as unconfirmed; conditions: IP 20 min before IL-1β intraplantar; 2 hr after IL-1
Description: These experiments were performed using a modification of the methods described by Poole etal., Br. J. Pharmacol. 106:489-492 (1992); Foilenfant et al., Br. J. Pharmacol. 98:41-43 (1989); and Randall and Sellito, Arch. Internatl. Pharmacodyn. 111:409-419 (1957), each of which is incorporated herein by reference. Adult male Sprague-Dawley rats (175-275 g) were tested for hyperalgesia by a paw pressure technique using variable pressure instrumentation (IITC Life Sciences; Woodland Hills, Calif.). Rats were acclimated to the housing environment and were handled for three days prior to beginning a training session. On the day before the hyperalgesia experiments was to begin, each rat was placed into a sock and two variable paw pressure tests were performed 15 min apart. […] Approximately 5-10% of the rats were non-responders and were eliminated from further experiments.
Animals that responded to the paw pressure were pretreated by IP injection of various concentrations of EX-2 in a volume of 1 ml/kg (treated) or saline, alone (control). After 20 min, 100 μl of IL-1β (1U/100 μl) was administered to rats via intra plantar injection. Two hr after IL-1 administration, rats were subjected to two additional paw pressure tests and the increase in mm Hg of pressure that could be applied to the EX-2-treated rats as compared to the control rats was determined.

Substance: Ac-Nle-Gln-His-(D)Phe-Arg-(D)Trp-Gly-NH2 [EX-2]
- % Reduction of induced increase, iNOS, cGMP (pmol/100 mg/15 min) [1]: 60%
- volunteers in whom plasma IL-10 levels increased (IL-10; 200 ug/kg intravenous infusion): two of four
- increase of plasma IL-10 (IL-10; 200 ug/kg intravenous infusion): 85%
- volunteers in whom plasma IL-10 levels increased (IL-10; 500 ug/kg intravenous infusion): four of four
- increase of plasma IL-10 (IL-10; 500 ug/kg intravenous infusion): 230%
- % Reduction, Zucker NIDDM Diabetes, Body Weight (grams) (Zucker NIDDM diabetes): 32%
- % Reduction, Zucker NIDDM Diabetes, Insulin (ng/ml) (Zucker NIDDM diabetes): 39%
- % Reduction, Zucker NIDDM Diabetes, Urine Protein (mg/24 hr) (Zucker NIDDM diabetes): 87%
- decrease in body weight (Zucker NIDDM diabetes): approximately 100 gram
- Reduction in IL-1-induced Hyperalgesia (increase in tolerated paw pressure) [2]: 125%
